In US8680052B1, “Methods of treating, reducing the incidence of, and/or preventing ischemic events” (The Medicines Company, priority 2013, dated 2014):
Read-outs that look alike come from different tables or passages of the source.

Test system: patients with acute coronary syndromes undergoing PCI
Details: for IDR / MI / Mortality/MI/IDR / Mortality/Q-wave MI/IDR / Mortality/Q-wave MI/Stent thrombosis / Q-wave MI / Stent thrombosis / All-cause mortality: 30 days; for Angiographic complications (site reported): Abrupt vessel closure / Angiographic complications (site reported): Acute stent thrombosis / Angiographic complications (site reported): Need for urgent CABG / Angiographic complications (site reported): New thrombus or suspected thrombus / Angiographic complications (site reported): Threatened abrupt closure / Angiographic complications (site reported): Unsuccessful procedure: index PCI
Procedure: Patients were eligible for enrollment if they had stable angina, unstable angina, or non-ST-segment elevation (NSTE) MI with obstructive coronary artery disease and were scheduled to undergo PCI.
The infusion began within 30 minutes prior to PCI and continued for at least 2 hours or until the conclusion of the index procedure, whichever was longer. At the treating physician's discretion, the infusion could be continued for 4 hours.
All patients received aspirin 75-325 mg per local site standards. Adjunctive anticoagulants (unfractionated heparin, low molecular weight heparin, bivalirudin, or fondaparinux) and the procedural use of glycoprotein IIb/IIIa inhibitors were determined by the treating physician.
The primary efficacy endpoint was the 48-hour composite of all-cause mortality, MI, or ischemia-driven revascularization. Prespecified secondary efficacy endpoints included the composite of mortality or MI at 48 hours and 30 days; the composite of mortality, MI, or ischemia-driven revascularization at 30 days; the components of the composite endpoints at 48 hours and 30 days; stroke at 48 hours; abrupt closure, threatened abrupt closure, need for urgent coronary artery bypass grafting, or unsuccessful procedure during the index PCI; acute (24 hours) and 48 hours stent thrombosis; and all-cause mortality at 6 months and 1 year.
Rates of MI and ischemia-driven revascularization up to 30 days following the index procedure were assessed. Ischemia-driven revascularization was defined as symptoms of myocardial ischemia leading to urgent (within 24 hours of the last episode of ischemia) revascularization, which must have occurred after the index procedure concluded (i.e., guidewire removal). New electrocardiographic changes, acute pulmonary edema, ventricular arrhythmias, or hemodynamic instability could also constitute evidence of ischemia.
MI was defined by a new Q wave (duration >0.03 seconds) in two contiguous electrocardiographic leads or elevations in creatine kinase (CK) and CK-MB, including a rise of CK-MB≧3 times the local upper limit or normal and, when biomarkers were elevated prior to PCI, an additional 50% above baseline. One baseline troponin measurement was required for patients undergoing urgent PCI. Measurements of CK-MB were obtained at 2, 10, 17, and 24 hours post-PCI.
The primary efficacy analysis was to be determined in the modified intent-to-treat (mITT) population, defined as all randomized patients (excluding STEMI cohort) who received at least one dose of study drug and underwent the index PCI. The safety population consisted of all randomized patients who received any study drug. Patients in the safety analyses were assigned to a treatment arm based on treatment received, not as randomized.

COC(=O)[C@H](c1ccccc1Cl)N1CCc2sccc2C1 [Clopidogrel, clopidogrel, reference compound]
IDR (ITT With STEMI): 15 (3.0) no. (%) | MI (ITT With STEMI): 17 (3.4) no. (%) | Mortality/MI/IDR (ITT With STEMI): 41 (8.2) no. (%) | Mortality/Q-wave MI/IDR (ITT With STEMI): 31 (6.2) no. (%) | Mortality/Q-wave MI/Stent thrombosis (ITT With STEMI): 26 (5.2) no. (%) | Q-wave MI (ITT With STEMI): 0 (0.0) no. (%) | Stent thrombosis (ITT With STEMI): 10 (2.0) no. (%) | All-cause mortality (ITT Without STEMI): 31 (0.8) no. (%) | IDR (ITT Without STEMI): 54 (1.4) no. (%) | MI (ITT Without STEMI): 276 (7.1) no. (%) | Mortality/MI/IDR (ITT Without STEMI): 332 (8.6) no. (%) | Mortality/Q-wave MI/IDR (ITT Without STEMI): 88 (2.3) no. (%) | Mortality/Q-wave MI/Stent thrombosis (ITT Without STEMI): 56 (1.4) no. (%) | Q-wave MI (ITT Without STEMI): 15 (0.4) no. (%) | Stent thrombosis (ITT Without STEMI): 20 (0.5) no. (%) | All-cause mortality (MITT): 38 (0.9) no. (%) | IDR (MITT): 66 (1.5) no. (%) | MI (MITT): 292 (6.8) no. (%) | Mortality/MI/IDR (MITT): 360 (8.4) no. (%) | Mortality/Q-wave MI/IDR (MITT): 107 (2.5) no. (%) | Mortality/Q-wave MI/Stent thrombosis (MITT): 73 (1.7) no. (%) | Q-wave MI (MITT): 15 (0.4) no. (%) | Stent thrombosis (MITT): 30 (0.7) no. (%) | All-cause mortality (MITT With STEMI): 11 (2.5) no. (%) | IDR (MITT With STEMI): 14 (3.2) no. (%) | MI (MITT With STEMI): 16 (3.6) no. (%) | Mortality/MI/IDR (MITT With STEMI): 34 (7.7) no. (%) | Mortality/Q-wave MI/IDR (MITT With STEMI): 25 (5.6) no. (%) | Mortality/Q-wave MI/Stent thrombosis (MITT With STEMI): 21 (4.7) no. (%) | Q-wave MI (MITT With STEMI): 0 (0.0) no. (%) | Stent thrombosis (MITT With STEMI): 10 (2.3) no. (%) | All-cause mortality (MITT Without STEMI): 27 (0.7) no. (%) | IDR (MITT Without STEMI): 52 (1.4) no. (%) | MI (MITT Without STEMI): 276 (7.2) no. (%) | Mortality/MI/IDR (MITT Without STEMI): 326 (8.5) no. (%) | Mortality/Q-wave MI/IDR (MITT Without STEMI): 82 (2.1) no. (%) | Mortality/Q-wave MI/Stent thrombosis (MITT Without STEMI): 52 (1.4) no. (%) | Q-wave MI (MITT Without STEMI): 15 (0.4) no. (%) | Stent thrombosis (MITT Without STEMI): 20 (0.5) no. (%) | All-cause mortality (Safety population): 41 (0.9) no. (%) | IDR (Safety population): 67 (1.6) no. (%) | MI (Safety population): 293 (6.8) no. (%) | Mortality/MI/IDR (Safety population): 365 (8.5) no. (%) | Mortality/Q-wave MI/IDR (Safety population): 111 (2.6) no. (%) | Mortality/Q-wave MI/Stent thrombosis (Safety population): 76 (1.8) no. (%) | Q-wave MI (Safety population): 15 (0.3) no. (%) | Stent thrombosis (Safety population): 30 (0.7) no. (%) | Angiographic complications (site reported): Abrupt vessel closure (ITT): 22 (0.5) | Angiographic complications (site reported): Acute stent thrombosis (ITT): 5 (0.1) | Angiographic complications (site reported): Need for urgent CABG (ITT): 7 (0.2) | Angiographic complications (site reported): New thrombus or suspected thrombus (ITT): 23 (0.5) | Angiographic complications (site reported): Threatened abrupt closure (ITT): 12 (0.3) | Angiographic complications (site reported): Unsuccessful procedure (ITT): 103 (2.4) | Angiographic complications (site reported): Abrupt vessel closure (ITT With STEMI): 3 (0.7) | Angiographic complications (site reported): Acute stent thrombosis (ITT With STEMI): 0 (0.0) | Angiographic complications (site reported): Need for urgent CABG (ITT With STEMI): 0 (0.0) | Angiographic complications (site reported): New thrombus or suspected thrombus (ITT With STEMI): 7 (1.5) | Angiographic complications (site reported): Threatened abrupt closure (ITT With STEMI): 2 (0.4) | Angiographic complications (site reported): Unsuccessful procedure (ITT With STEMI): 11 (2.4) | Angiographic complications (site reported): Abrupt vessel closure (ITT Without STEMI): 19 (0.5) | Angiographic complications (site reported): Acute stent thrombosis (ITT Without STEMI): 5 (0.1) | Angiographic complications (site reported): Need for urgent CABG (ITT Without STEMI): 7 (0.2) | Angiographic complications (site reported): New thrombus or suspected thrombus (ITT Without STEMI): 16 (0.4) | Angiographic complications (site reported): Threatened abrupt closure (ITT Without STEMI): 10 (0.3) | Angiographic complications (site reported): Unsuccessful procedure (ITT Without STEMI): 92 (2.4) | Angiographic complications (site reported): Abrupt vessel closure (MITT): 22 (0.5) | Angiographic complications (site reported): Acute stent thrombosis (MITT): 5 (0.1) | Angiographic complications (site reported): Need for urgent CABG (MITT): 6 (0.1) | Angiographic complications (site reported): New thrombus or suspected thrombus (MITT): 22 (0.5) | Angiographic complications (site reported): Threatened abrupt closure (MITT): 12 (0.3) | Angiographic complications (site reported): Unsuccessful procedure (MITT): 103 (2.4) | Angiographic complications (site reported): Abrupt vessel closure (MITT NSTEMI): 19 (0.5) | Angiographic complications (site reported): Acute stent thrombosis (MITT NSTEMI): 5 (0.1) | Angiographic complications (site reported): Need for urgent CABG (MITT NSTEMI): 6 (0.2) | Angiographic complications (site reported): New thrombus or suspected thrombus (MITT NSTEMI): 16 (0.4) | Angiographic complications (site reported): Threatened abrupt closure (MITT NSTEMI): 10 (0.3) | Angiographic complications (site reported): Unsuccessful procedure (MITT NSTEMI): 92 (2.4) | Angiographic complications (site reported): Abrupt vessel closure (Safety population): 22 (0.5) | Angiographic complications (site reported): Acute stent thrombosis (Safety population): 5 (0.1) | Angiographic complications (site reported): Need for urgent CABG (Safety population): 6 (0.1) | Angiographic complications (site reported): New thrombus or suspected thrombus (Safety population): 22 (0.5) | Angiographic complications (site reported): Threatened abrupt closure (Safety population): 12 (0.3) | Angiographic complications (site reported): Unsuccessful procedure (Safety population): 103 (2.4)
